Assay results as given in patent publication US7687470B2, “Avermectin and avermectin monosaccharide substituted in the 4″- and 4″ position respectively” (Syngenta Crop Protection, Inc., priority 2005, dated 2010).

Test system: Diabrotica balteata
Assay: Activity against Diabrotica balteata (sprayed maize seedlings)
Type: in vivo
Settings: 12.5 ppm, spray on maize seedlings, second-stage larvae, after 6 days; b227: good activity corresponding to a mortality of at least 50 to 60%
Description: Maize seedlings are sprayed with an aqueous emulsion spray liquor which comprises 12.5 ppm of active compound and, after the spray coating has dried on, populated with 10 larvae of the second stage of Diabrotica balteata and then introduced into a plastic container. After 6 days, the reduction in the population in percent (% activity) is determined by comparing the dead larvae between the treated and the untreated plants.

## CCC(C)C1OC2(C=CC1C)CC1CC(CC=C(C)C(OC3CC(OC)C(OC4CC(OC)C(C)(NC=O)C(C)O4)C(C)O3)C(C)C=CC=C3COC4C(O)C(C)=CC(C(=O)O1)C34O)O2 (stereo not shown) [Table A8]
  activity in this test (in words): good activity
